In patent US20220143003A1, “COMPOSITIONS AND METHODS TO TREAT NON-ALCOHOLIC FATTY LIVER DISEASES (NAFLD)” (Coherus Biosciences, Inc., priority 2018, published 2022):

System: DIO-NASH mice
Test: Plasma urea at termination
Format: in vivo, male C57BL/6JRj mice
Conditions: termination; group mean; CHS-131 High dose (alone or combined)
Description: For plasma biochemistry, tail blood was drawn directly through the capillary of a Microvette/Vacuette of the right dimension and anticoagulant and mixed by inversion 5 times. Blood was placed at 4° C. until centrifugation at 3000×g for 10 minutes at 4° C. The plasma supernatants were transferred to new tubes and immediately frozen on dry ice and stored at −80° C. until analysis.
Mouse insulin was measured in single determinations using the MSD platform (Meso Scale Diagnostics).
Plasma urea at termination (mmol/L). Values expressed as mean of n=12-14+SEM.

Question: How did the “Plasma urea at termination” value turn out when CCCCCCCCCCCCCCCC(=O)N[C@@H](CCC(=O)NCCCC[C@H](NC(=O)[C@H](C)NC(=O)[C@H](C)NC(=O)[C@H](CCC(N)=O)NC(=O)CNC(=O)[C@H](CCC(=O)O)NC(=O)[C@H](CC(C)C)NC(=O)[C@H](Cc1ccc(O)cc1)NC(=O)[C@H](CO)NC(=O)[C@H](CO)NC(=O)[C@@H](NC(=O)[C@H](CC(=O)O)NC(=O)[C@H](CO)NC(=O)[C@@H](NC(=O)[C@H](Cc1ccccc1)NC(=O)[C@@H](NC(=O)CNC(=O)[C@H](CCC(=O)O)NC(=O)[C@H](C)NC(=O)[C@@H](N)Cc1cnc[nH]1)[C@@H](C)O)[C@@H](C)O)C(C)C)C(=O)N[C@@H](CCC(=O)O)C(=O)N[C@@H](Cc1ccccc1)C(=O)N[C@H](C(=O)N[C@@H](C)C(=O)N[C@@H](Cc1c[nH]c2ccccc12)C(=O)N[C@@H](CC(C)C)C(=O)N[C@H](C(=O)N[C@@H](CCCNC(=N)N)C(=O)NCC(=O)N[C@@H](CCCNC(=N)N)C(=O)NCC(=O)O)C(C)C)[C@@H](C)CC)C(=O)O [Liraglutide, reference compound] was run?
Answer: 7.86 mmol/L
